Experimental data as given in BigSolDB 2.1.

O=C(O)c1ccccc1
Conditions | solubility (mole fraction)
in 2-(2-butoxyethoxy)ethanol, 296.15 K | 0.285
in 2-(2-butoxyethoxy)ethanol, 305.15 K | 0.304
in 2-(2-butoxyethoxy)ethanol, 309.65 K | 0.314
in 2-(2-butoxyethoxy)ethanol, 311.15 K | 0.329
in 2-(2-butoxyethoxy)ethanol, 317.15 K | 0.356
in 2-(2-butoxyethoxy)ethanol, 321.15 K | 0.377
in 2-(2-butoxyethoxy)ethanol, 326.15 K | 0.409
in 2-(2-butoxyethoxy)ethanol, 329.65 K | 0.431
in 2-(2-butoxyethoxy)ethanol, 334.15 K | 0.458
in 2-(2-butoxyethoxy)ethanol, 336.15 K | 0.472
in DMAc, 288.65 K | 0.469
in DMAc, 293.35 K | 0.472
in DMAc, 302.15 K | 0.475
in DMAc, 308.65 K | 0.483
in DMAc, 311.65 K | 0.489
in DMAc, 315.15 K | 0.496
in DMAc, 318.15 K | 0.505
in DMAc, 320.65 K | 0.515
in DMAc, 324.15 K | 0.529
in DMAc, 329.15 K | 0.548
in cyclohexanone, 286.15 K | 0.174
in cyclohexanone, 288.95 K | 0.181
in cyclohexanone, 294.15 K | 0.197
in cyclohexanone, 299.15 K | 0.221
in cyclohexanone, 303.65 K | 0.242
in cyclohexanone, 307.95 K | 0.265
in cyclohexanone, 316.15 K | 0.29
in cyclohexanone, 319.15 K | 0.315
in cyclohexanone, 322.15 K | 0.337
in cyclohexanone, 326.15 K | 0.362
in decalin, 296.15 K | 0.0147
in decalin, 301.15 K | 0.0163
in decalin, 306.25 K | 0.0196
in decalin, 311.05 K | 0.0249
in decalin, 318.05 K | 0.0355
in decalin, 325.15 K | 0.0495
in decalin, 329.25 K | 0.0589
in decalin, 332.55 K | 0.0687
in decalin, 337.05 K | 0.0887
in decalin, 338.65 K | 0.103
in diethylene glycol, 294.15 K | 0.0746
in diethylene glycol, 298.15 K | 0.0995
in diethylene glycol, 302.35 K | 0.131
in diethylene glycol, 305.15 K | 0.148
in diethylene glycol, 309.35 K | 0.183
in diethylene glycol, 314.65 K | 0.225
in diethylene glycol, 319.95 K | 0.269
in diethylene glycol, 324.15 K | 0.3
in diethylene glycol, 327.95 K | 0.336
in diethylene glycol, 332.25 K | 0.367
in ethylene glycol, 291.65 K | 0.0449
in ethylene glycol, 298.15 K | 0.0539
in ethylene glycol, 300.95 K | 0.0604
in ethylene glycol, 303.15 K | 0.0689
in ethylene glycol, 306.65 K | 0.0823
in ethylene glycol, 310.15 K | 0.097
in ethylene glycol, 314.15 K | 0.112
in ethylene glycol, 320.15 K | 0.14
in ethylene glycol, 324.15 K | 0.155
in ethylene glycol, 330.65 K | 0.185
in m-xylene, 296.15 K | 0.0649
in m-xylene, 302.15 K | 0.0823
in m-xylene, 306.15 K | 0.0928
in m-xylene, 312.65 K | 0.117
in m-xylene, 315.15 K | 0.129
in m-xylene, 320.15 K | 0.154
in m-xylene, 323.15 K | 0.173
in m-xylene, 330.65 K | 0.22
in m-xylene, 334.15 K | 0.246
in m-xylene, 336.15 K | 0.257
in n-octane, 313.15 K | 0.024
in n-octane, 322.35 K | 0.033
in n-octane, 325.15 K | 0.0365
in n-octane, 329.15 K | 0.0448
in n-octane, 334.15 K | 0.0578
in n-octane, 338.35 K | 0.0718
in n-octane, 342.65 K | 0.0865
in n-octane, 345.15 K | 0.0955
in n-octane, 348.15 K | 0.11
in n-octane, 354.15 K | 0.134
in o-xylene, 297.15 K | 0.0655
in o-xylene, 300.15 K | 0.0735
in o-xylene, 303.15 K | 0.0853
in o-xylene, 308.65 K | 0.101
in o-xylene, 311.15 K | 0.115
in o-xylene, 316.15 K | 0.139
in o-xylene, 321.15 K | 0.162
in o-xylene, 325.15 K | 0.189
in o-xylene, 332.15 K | 0.218
in o-xylene, 334.15 K | 0.239
in p-xylene, 295.15 K | 0.0628
in p-xylene, 299.65 K | 0.0743
in p-xylene, 302.15 K | 0.0819
in p-xylene, 307.15 K | 0.0953
in p-xylene, 311.45 K | 0.115
in p-xylene, 320.65 K | 0.148
in p-xylene, 323.15 K | 0.169
in p-xylene, 326.95 K | 0.191
in p-xylene, 331.15 K | 0.218
in p-xylene, 335.15 K | 0.244
in propionic acid, 291.15 K | 0.146
in propionic acid, 294.65 K | 0.149
in propionic acid, 300.15 K | 0.171
in propionic acid, 304.45 K | 0.19
in propionic acid, 308.15 K | 0.213
in propionic acid, 314.15 K | 0.235
in propionic acid, 317.15 K | 0.251
in propionic acid, 322.15 K | 0.271
in propionic acid, 325.15 K | 0.293
in propionic acid, 330.15 K | 0.332
in sulfolane, 305.15 K | 0.122
in sulfolane, 312.15 K | 0.132
in sulfolane, 314.15 K | 0.138
in sulfolane, 318.65 K | 0.156
in sulfolane, 325.15 K | 0.192
in sulfolane, 329.15 K | 0.216
in sulfolane, 333.65 K | 0.245
in sulfolane, 338.15 K | 0.282
in sulfolane, 343.15 K | 0.315
in sulfolane, 345.15 K | 0.33
